Measured values taken from patent US5688787A, “Substituted β-lactam compounds useful as hypochlesterolemic agents and processes for the preparation thereof” (priority 1996, dated 1997).
Like-named read-outs stand apart in the source and are kept apart here.

System: Hyperlipidemic Hamster
Experiment: In Vivo Assay of Hypolipidemic Agents Using the Hyperlipidemic Hamster
Conditions: 7 days, percent change versus control, negative = lowering; for change in vivo at 50 mg/kg / change in vivo at 5 mg/kg / change in vivo at 10 mg/kg / change in vivo at 1 mg/kg / change in vivo at 3 mg/kg: Mesocricetus auratus, po, 168 h; for change in vivo at 50 mg/kg / % Reduction (in vivo) Cholest. Esters / % Reduction (in vivo) Serum Cholest.: 50 mg/kg once daily oral; for change in vivo at 5 mg/kg: 5 mg/kg once daily oral; for change in vivo at 10 mg/kg: 10 mg/kg once daily oral; for change in vivo at 1 mg/kg: 1 mg/kg once daily oral; for change in vivo at 3 mg/kg: 3 mg/kg once daily oral
Method in brief: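 Hamsters, six per group, were fed chow with 0.5% cholesterol for seven days and given compound once daily by oral gavage in corn oil; controls received corn oil alone. Plasma (EDTA) and liver lipids were measured at sacrifice. Values are percent change versus control, so negative means lowering.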

[1] = read-out: % Reduction (in vivo) Cholest. Esters
[2] = read-out: % Reduction (in vivo) Serum Cholest.

| SMILES | change in vivo at 50 mg/kg [1] [%] | change in vivo at 50 mg/kg [2] [%] | other results |
| --- | --- | --- | --- |
| COc1ccc([C@@H]2[C@H](NCCc3ccccc3)C(=O)N2c2ccccc2)cc1 (relative stereo) [Example 14] | -87 | 30 |  |
| COc1ccc([C@@H]2[C@@H](CCCc3ccccc3)C(=O)N2c2ccc(S(C)(=O)=O)cc2)cc1 (relative stereo) [Example 17B] | -39 | 0 |  |
| COc1ccc(N2C(=O)[C@@H](CCCc3ccccc3)[C@H]2c2ncc[nH]2)cc1 (relative stereo) [Example 18] | 0 | 0 |  |
| COc1ccc(N2C(=O)[C@H](CCCc3ccccc3)[C@H]2c2ccc(CN3CCN(C)CC3)cc2)cc1 (relative stereo) [Example 19C] | -46 | -9 |  |
| COc1ccc(NC[C@H]2[C@@H](CCCc3ccccc3)C(=O)N2c2ccc(OC)cc2)cc1 (relative stereo) [Example 19D] | -18 | -15 |  |
| COc1ccc(N2C(=O)[C@H](CCCc3ccccc3)[C@@H]2CN2CCOCC2)cc1 (relative stereo) [Example 19E] | -30 | -19 |  |
| COc1ccc(N2C(=O)[C@H](CCCc3ccccc3)[C@H]2c2cc[n+]([O-])cc2)cc1 (relative stereo) [Example 20] | 0 | 12 |  |
| COCc1ccc([C@H]2[C@@H](CCCc3ccccc3)C(=O)N2c2ccc(OC)cc2)cc1 (relative stereo) [Example 21A] | -25 | 0 |  |
| COCc1ccc([C@@H]2[C@@H](CCCc3ccccc3)C(=O)N2c2ccc(OC)cc2)cc1 (relative stereo) [Example 21] | -56 | -27 |  |
| COc1ccc(N2C(=O)[C@H](CCCc3ccccc3)[C@@H]2c2ccc(C(=O)O)cc2)cc1 (relative stereo) [Example 22A] | -22 | -16 |  |
| COc1ccc(N2C(=O)[C@@H](CCCc3ccccc3)[C@@H]2c2ccc(C(=O)O)cc2)cc1 (relative stereo) [Example 22] | -33 | -17 |  |
| COc1ccc(N2C(=O)[C@H](CCCc3ccccc3)[C@@H]2c2ccc(C(=O)N3CCOCC3)cc2)cc1 (relative stereo) [Example 23] | -40 | -22 |  |
| CCOC(=O)c1ccc([C@@H]2[C@@H](CCCc3ccccc3)C(=O)N2c2ccc(OC)cc2)cc1 (relative stereo) [Example 24A] | -76 | -21 |  |
| CCOC(=O)c1ccc([C@H]2[C@@H](CCCc3ccccc3)C(=O)N2c2ccc(OC)cc2)cc1 (relative stereo) [Example 24] | 0 | -17 |  |
| COc1ccc(N2C(=O)[C@H](CCCc3ccccc3)[C@H]2c2ccc(N(S(C)(=O)=O)S(C)(=O)=O)cc2)cc1 (relative stereo) [Example 25A] | 0 | -13 |  |
| COc1ccc(N2C(=O)[C@H](CCCc3ccccc3)[C@@H]2c2ccc(N(S(C)(=O)=O)S(C)(=O)=O)cc2)cc1 (relative stereo) [Example 25B] | 0 | 0 |  |
| COc1ccc(N2C(=O)[C@@H](CCCc3ccccc3)[C@@H]2c2ccc(NS(C)(=O)=O)cc2)cc1 (relative stereo) [Example 25C] | -46 | -8 |  |
| COc1ccc(N2C(=O)[C@H](CCCc3ccccc3)[C@@H]2c2ccc(NS(C)(=O)=O)cc2)cc1 (relative stereo) [Example 25] | -34 | -8 |  |
| COc1ccc(N2C(=O)[C@H](CCCc3ccccc3)[C@H]2c2ccc(NC(C)=O)cc2)cc1 (relative stereo) [Example 26] | -26 | -4 |  |
| CON=Cc1ccc([C@H]2[C@H](CCCc3ccccc3)C(=O)N2c2ccc(OC)cc2)cc1 (relative stereo) [Example 27A] | -42 | -15 |  |

| SMILES | change in vivo at 50 mg/kg [1] [%] | change in vivo at 50 mg/kg [2] [%] | other results |
| --- | --- | --- | --- |
| CON=Cc1ccc([C@H]2[C@@H](CCCc3ccccc3)C(=O)N2c2ccc(OC)cc2)cc1 (relative stereo) [Example 27] | -36 | -12 |  |
| COc1ccc(N2C(=O)[C@H](CCCc3ccccc3)[C@@H]2c2ccc(S)cc2)cc1 (relative stereo) [Example 28] | 0 | -19 |  |
| COc1ccc(N2C(=O)[C@H](CCCc3ccccc3)[C@@H]2c2ccc(S(N)(=O)=O)cc2)cc1 (relative stereo) [Example 29] | -24 | -22 |  |
| COc1ccc(N2C(=O)[C@H](CCCc3ccccc3)[C@@H]2c2ccc(C3OCCO3)cc2)cc1 (relative stereo) [Example 31] | -52 | -19 |  |
| COc1ccc(N2C(=O)[C@H](CCCc3ccccc3)[C@H]2c2cc(I)c(O)c(I)c2)cc1 (relative stereo) [Example 32A] | 0 | 0 |  |
| COc1ccc(N2C(=O)[C@H](CCCc3ccccc3)[C@H]2c2ccc(O)c(I)c2)cc1 (relative stereo) [Example 32] | 0 | 0 |  |
| COc1ccc([C@@H]2[C@@H](CCCc3ccc(N=[N+]=[N-])cc3)C(=O)N2c2ccc(OC)cc2)cc1 (relative stereo) [Example 33] | 0 | 0 |  |
| CCOC(=O)COc1ccc([C@H]2[C@@H](CCCc3ccccc3)C(=O)N2c2ccc(OC)cc2)cc1 (relative stereo) [Example 35A] | -84 | -34 |  |
| COc1ccc([C@@H]2[C@@H]([C@H]3C[C@H]3Cc3ccccc3)C(=O)N2c2ccc(OC)cc2)cc1 (relative stereo) [Example 36] | -94 | -53 |  |
| COc1ccc(N2C(=O)C(CCCc3ccccc3)C2c2ccc(C3OCCO3)cc2)cc1 (stereo not drawn) [Example 1AX] |  |  | % Reduction (in vivo) Cholest. Esters: -52%; % Reduction (in vivo) Serum Cholest.: -16% |
| COc1ccc(C2C(CCCc3ccccc3)C(=O)N2c2ccc(OC)cc2)cc1 (stereo not drawn) [Example 1] | -95 | -45 | change in vivo at 5 mg/kg [1]: 0%; change in vivo at 5 mg/kg [2]: 0%; change in vivo at 10 mg/kg [1]: -55%; change in vivo at 10 mg/kg [2]: -17% |
| COc1ccc([C@H]2[C@@H](CCCc3ccccc3)C(=O)N2c2ccc(OC)cc2)cc1 [Example 2A] | 0 | 0 |  |
| COc1ccc([C@@H]2[C@H](CCCc3ccccc3)C(=O)N2c2ccc(OC)cc2)cc1 [Example 2] |  |  | change in vivo at 5 mg/kg [1]: -37%; change in vivo at 5 mg/kg [2]: -15%; change in vivo at 10 mg/kg [1]: -69%; change in vivo at 10 mg/kg [2]: -28% |
| COc1ccc(C2C(CCCc3ccccc3)C(=O)N2c2ccc(Oc3ccccc3)cc2)cc1 (stereo not drawn) [Example 5K] | -49 | -28 |  |
| COc1ccc([C@@H]2[C@@H](CCCc3ccccc3)C(=O)N2c2ccccc2)cc1 [Example 5L] |  |  | change in vivo at 1 mg/kg [1]: -64%; change in vivo at 1 mg/kg [2]: -54%; change in vivo at 3 mg/kg [1]: -84%; change in vivo at 3 mg/kg [2]: -39%; change in vivo at 10 mg/kg [1]: -95%; change in vivo at 10 mg/kg [2]: -50% |
| COc1ccc([C@H]2[C@H](CCCc3ccccc3)C(=O)N2c2ccccc2)cc1 [Example 5M] | -50 | -20 | change in vivo at 3 mg/kg [1]: 0%; change in vivo at 3 mg/kg [2]: -12%; change in vivo at 10 mg/kg [1]: -36%; change in vivo at 10 mg/kg [2]: -8% |
| COc1ccc([C@@H]2[C@@H](CCCc3ccccc3)C(=O)N2c2ccc(OC)cc2)cc1 [Example 9, (3R,4S)-1,4-bis-(4-methoxyphenyl)-3-(3-phenylpropyl)-2-azetidinone] |  |  | change in vivo at 3 mg/kg [1]: -68%; change in vivo at 3 mg/kg [2]: -25%; change in vivo at 5 mg/kg [1]: -66%; change in vivo at 5 mg/kg [2]: -21.5%; change in vivo at 10 mg/kg [1]: -93%; change in vivo at 10 mg/kg [2]: -43% |
| COc1ccc(N2C(=O)C(CCCc3ccccc3)C2c2ccc(C3OCCO3)cc2)cc1 (stereo not drawn) [Example 31A] |  |  | % Reduction (in vivo) Cholest. Esters: 0%; % Reduction (in vivo) Serum Cholest.: 0% |
| COC(=O)CCC(=O)Oc1ccc(C2C(CCCc3ccccc3)C(=O)N2c2ccc(OC)cc2)cc1 (stereo not drawn) [Example 34] | -94 | -39 |  |
